Measurements as given in patent US20160338955A1, “ANTIGEN-SPECIFIC IMMUNOTHERAPY USING TOLERIZING LIPOSOMES” (PLS-Design GmbH, priority 2015, published 2016).
Where two headings read alike, the source gives them in different places.

How the values were obtained:
[1] = test system: rheumatoid arthritis; conditions: 2 μg/day for 3 months, cited from earlier work
[2] = in vivo; cited from earlier work
[3] = cited from earlier work
[4] = cited from earlier work; remark: listed apart in the source
[5] = Release of DexP from PLGA-PEG-PLGA hydrogels; format: physicochemical
Experimental: The biodegradable PLGA-PEG-PLGA triblock polymer used in this example has a PLG/PEG weight ratio of 2.3 (70/30), and a lactide/glycolide molar ratio of approx. 15/1. Synthesis of the triblock copolymer is performed as described in Example 2.1. A 20 mM stock solution of DexP in PBS (10.3 mg/ml; MW 516.4; Sigma-Aldrich) is diluted 1:40 in PBS (final concentration: 0.5 mM), and 20 μl of the diluted stock solution is combined with 160 μl of 25% gel solution and 20 μl of 10×PBS (final concentration of DexP: 0.05 mM).
The mixture of 5.2.1 is incubated for 2 minutes at 37° C. to induce gelling and overlayed with 200 μl of 1×PBS. At frequent time points the supernatant is removed by pipetting and stored at 4° C. The removed supernatant is replaced by fresh 200 μl of 1×PBS. Controls of the same concentration of DexP in 1×PBS without gel are incubated and sampled in parallel.
Released DexP is determined with a spectrophotometric method (Singh and Verma, 2008). The method involves oxidation of the corticosteroid by iron (III) and subsequent complexation of iron (II) with potassium hexacynoferate (III), forming a bluish green coloured complex with maximum absorbance at 780 nm (Beer's law range: 10-50 μg/ml; molar absorptivity (M^−1cm^−1): for DexP 0.55×10^4).

[6] = test system: phagocytes; conditions: cited from earlier work
[7] = test system: type 1 diabetes; conditions: cited from earlier work

For `C=C1/C(=C\C=C2/CCC[C@]3(C)[C@@H]([C@H](C)CCCC(C)C)CC[C@@H]23)C[C@@H](O)C[C@@H]1O` [alfacalcidiol], the “patients with improvement of disease activity” value ([1]; on methotrexate) is listed as 89% and the “patients going into remission” value [1] is listed as 45%.

In the case of `C[C@]12CCC(=O)C=C1CC[C@@H]1[C@@H]2C(=O)C[C@@]2(C)[C@H]1CC[C@]2(O)C(=O)CO` [cortisone], the “glucocorticoid potency (in words)” value [2] is given as “rather low potency”.

In the case of `C[C@@H]1C[C@H]2[C@@H]3CCC4=CC(=O)C=C[C@]4(C)[C@@]3(F)[C@@H](O)C[C@]2(C)[C@@]1(O)C(=O)CO` [dexamethasone], the “plasma concentration of Dex” value ([3]; after 6 weeks (day 42)) is given as 1 nM and the “plasma concentration of Dex” value ([3]; around day 7 after i.v. 200 mg/day on three alternating days) is given as 100 to 1000 nM.

For `C[C@@H]1C[C@H]2[C@@H]3CCC4=CC(=O)C=C[C@]4(C)[C@@]3(F)[C@@H](O)C[C@]2(C)[C@@]1(O)C(=O)COP(=O)(O)O` [DexP, dexamethasone sodium phosphate], the “solubility in PBS” value ([4]; PBS) is given as “at least 25 mg/ml”, the “solubility in 10 mM HEPES and 135 mM NaCl, pH 6.7” value ([4]; pH 6.7) is given as “at least 50 mg/ml” and the solubility in water ([4]; water, product information) is given as 50 mg/mL. For the same molecule, the “hydrogel-embedded DexP released” value ([5]; after 2 days) was 80-90% and the “hydrogel-embedded DexP released” value ([5]; within the first 6 hours) was 30-50%.

In the case of `C[C@]12C=CC(=O)C=C1CC[C@@H]1[C@@H]2[C@@H](O)C[C@@]2(C)[C@H]1CC[C@]2(O)C(=O)CO` [prednisolone], the “glucocorticoid potency (in words)” value [2] is listed as “intermediate potency”.

In the case of `O=c1ccn([C@@H]2O[C@H](COP(=O)(O)OP(=O)(O)OP(=O)(O)O)[C@@H](O)[C@H]2O)c(=O)[nH]1` [UTP], the “maximal migration of phagocytes (increase)” value ([6]; at about 100 nM) is listed as “threefold increase” and the “concentration effecting maximal migration of phagocytes” value ([6]; transwell migration assay) is listed as “about 100 nM”.

In the case of `C[C@]12C=CC(=O)C=C1CC[C@H]1[C@@H]3C[C@@H](O)[C@](O)(C(=O)CO)[C@@]3(C)C[C@H](O)[C@@]12F` [triamcinolone], the “glucocorticoid potency (in words)” value [2] is given as “intermediate potency”.

In the case of vitamin D, the “relative risk of type 1 diabetes” value ([7]; doses of exactly 50 μg/day) is given as 0.22, the “relative risk of type 1 diabetes” value ([7]; doses of over 50 μg/day (2000 IU/d) during infancy, subsequent 30 years) is given as 0.14 and the “odds ratio of risk for T1D by age 15” value ([7]; supplemented vs unsupplemented children) is given as 0.67.

For `C[C@]12CCC(=O)C=C1CC[C@@H]1[C@@H]2[C@@H](O)C[C@@]2(C)[C@H]1CC[C@]2(O)C(=O)CO` [hydrocortisone], the “glucocorticoid potency (in words)” value [2] is given as “rather low potency”.
